Test results: patent US20180235916A1, “ENHANCING BETA CELL REPLICATION AND/OR SURVIVAL” (priority 2015, published 2018)
Values after ≈ are worked out from the molar mass of the structure shown. “Also recorded” adds a separate entry of the source. Read-outs that look alike come from different tables or passages of the source.

Key:
[1] = Solubility of test compounds (stock solutions)
[2] = system: INS-1 cells; assay: INS-1 cell proliferation, 3H-thymidine incorporation assay; format: cell-based; details: for INS-1 cell proliferation, single agents of TSPO experiment: each agent alone, midazolam or clonazepam 100 nM; for effect on GABA-stimulated INS-1 cell proliferation: low doses of PAM with GABA, FIG. 9 panels D-G
Procedure: (§1) 1. ^3H-thymidine incorporation assay: INS-1 cells at 1×10^5/well were treated in triplicate with indicated concentrations of individual compounds and cultured in 10% FCS RPMI164 medium in the presence of 0.3 μCi/well of 3H-thymidine for 48 hours (an optimal time period). The cells were harvested and the levels of ^3H-thymidine uptake in individual wells were measured by beta-counter.
as §1, with “0.3 uCi/well” for “0.3 μCi/well”, “of ^3H-thymidine” for “of 3H-thymidine”
INS-1 cells at 1×10^5/well were treated in triplicate with indicated concentrations of individual compounds and cultured in 10% FCS RPMI164 medium in the presence of ^3H-thymidine (0.3 μCi/well) for 48 hours (an optimal time period). The levels of ^3H-thymidine uptake in individual wells were measured by a scintillation counter.

[3] = long-term oral GABA, human clinical trials, epileptic seizures and cerebrovascular disorders; cited from earlier work
[4] = system: human islets; format: cell-based
Procedure: FIG. 2. Human islets (50/well) were incubated in media with, or without, alprazolam (30 ng/ml) for 4 days in the presence of ^3H thymidine. Data shown are the average rate of proliferation relative to that of cultures with media alone (designated as 1). N=two independent studies with triplicate cultures. Data was very similar in both studies.
N=two independent studies

[5] = system: adult human β-cells in islet xenoplants; details: oral GABA treatment; from less than 1% without; cited from earlier work
[6] = persons receiving the drug therapeutically; cited from earlier work
[7] = molecular target: mitochondrial translocator protein (TSPO) (Homo sapiens, UniProt P30536); details: cited from earlier work
[8] = system: EAE; details: stressed rats; cited from earlier work
[9] = patients with T1D or T2D, poor glucose control, after 8 weeks of treatment, vs placebo; cited from earlier work
[10] = compound alone at 10^−7-10^−8 M
[11] = GABA 0.3 mM, PK11195 1 uM, 48 hrs
[12] = PAM alone at 10 or/and 100 nM, FIG. 9 panel B
[13] = PAM 100 nM with GABA 0.3 mM, 48 hrs
[14] = PAM at 10^−7 or 3×10^−8 M with GABA

mitochondrial translocator protein (TSPO), sequence (P30536 whole entry): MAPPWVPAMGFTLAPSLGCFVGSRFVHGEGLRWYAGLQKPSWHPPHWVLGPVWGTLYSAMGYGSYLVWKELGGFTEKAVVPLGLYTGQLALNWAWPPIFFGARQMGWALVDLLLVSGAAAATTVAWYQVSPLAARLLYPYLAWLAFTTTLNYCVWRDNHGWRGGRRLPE

Q: Which “soluble in DMSO” value ([1]; in DMSO) does the source give for `Cc1cc(NC(=O)/C(C#N)=C(\O)C2CC2)ccc1C(F)(F)F` [AP325] here?
A: 50 mM

Q: What about the “effect on GABA-induced INS-1 cell proliferation” value ([2]; AP325 at 10^−7-10^−8 M with GABA, FIG. 7) of the same compound?
A: significantly enhanced GABA-induced INS-1 cell proliferation

Q: And the “INS-1 cell proliferation (toxicity at high dose)” value ([2]; compound alone at 10^−4-10^−5 M, FIG. 6)?
A: significantly inhibited INS-1 cell proliferation

Q: What about the INS-1 cell proliferation ([2]; compound alone at 10^−6-10^−10, FIG. 6) of the same compound?
A: did not increase significantly the proliferation of INS-1 cells

Q: And the INS-1 cell proliferation [2, 10]?
A: slightly increased the proliferation of INS-1 cells

Q: And the INS-1 cell proliferation ([2]; compound at 3×10^−7-10^−8 M together with 0.03 mM GABA)?
A: significantly promoted INS-1 cell proliferation

Q: And the INS-1 cell proliferation ([2]; compound at 10^−6 M, data not shown)?
A: did not significantly change the proliferation of INS-1 cells

Q: And the INS-1 cell proliferation ([2]; compound at 10^−7 together with 0.01 mM GABA)?
A: significantly stimulated INS-1 cell proliferation

Q: What does the source list for `NCCCC(=O)O` [GABA, gamma-aminobutyric acid]?
A: adverse effects [3]: no adverse effects; clinical benefit [3]: no clinical benefit; human islet cell proliferation ([4]; 0.03 mM GABA alone, 4 days, FIG. 3): did not significantly enhance human islet cell proliferation; human islet cell proliferation ([4]; 0.03 mM GABA alone, FIG. 12): did not significantly enhance human islet cell proliferation; human islet cell proliferation ([4]; GABA alone at 0.3-3 mM, FIG. 12): significantly enhanced human islet cell proliferation; level of GABA alone required to achieve a similar level of proliferation ([4]; similar to 0.03 mM GABA + 100 nM alprazolam, FIG. 12): 0.3 mM; level of GABA alone required to achieve a similar level of proliferation ([4]; similar to 0.03 mM GABA + alprazolam 30 ng/ml, FIG. 3): 0.3 mM; replicating adult human β-cells in islet xenoplants [5]: 2-3%; INS-1 cell proliferation ([2]; 0.01 mM GABA alone, FIG. 9 panels C-G): did not stimulate INS-1 proliferation; INS-1 cell proliferation ([2]; GABA alone at 0.03-0.01 mM): failed to induce INS-1 cell proliferation; also recorded: did not significantly stimulate INS-1 cell proliferation; INS-1 cell proliferation ([2]; GABA alone at 0.03-0.3 mM, FIG. 9 panels C-G): stimulated INS-1 cell proliferation; INS-1 cell proliferation ([2]; GABA alone at 1-0.1 mM): stimulated INS-1 cell proliferation; INS-1 cell proliferation, single agents of TSPO experiment [2, 11]: induced INS-1 cell proliferation

Q: For `CCC(C)N(C)C(=O)c1cc2ccccc2c(-c2ccccc2Cl)n1` (centres unmarked) [PK11195], which “effect of TSPO inhibitor on GABA + midazolam or clonazepam enhanced INS-1 cell proliferation” value ([2]; PK11195 1 uM, GABA 0.3 mM, PAM 100 nM, 48 hrs, FIG. 9 panel H) is on record?
A: not affected by PK11195; also recorded: did not affect the ability of GABA and the tested benzodiazepines to enhance INS-1 cell replication

Q: What about the “INS-1 cell proliferation, single agents of TSPO experiment” value [2, 11] of the same compound?
A: but not clonazepam or PK11195 induced INS-1 cell proliferation

Q: For `Cc1nnc2n1-c1ccc(Cl)cc1C(c1ccccc1)=NC2` [alprazolam], which “concentration in the serum” value [6] is on record?
A: 10 to 100 ng/mL

Q: And the “binding to TSPO” value [7]?
A: does not bind to TSPO

Q: What about the “human islet cell proliferation” value ([4]; 0.03 mM GABA together with 100 nM alprazolam, FIG. 12) of the same compound?
A: significantly enhanced human islet cell proliferation

Q: And the “human islet cell proliferation enhanced” value ([4]; 0.03 mM GABA together with alprazolam 30 ng/ml, 4 days, FIG. 3)?
A: 138%

Q: What about the “human islet cell proliferation promoted compared to cultures with no alprazolam” value ([4]; alprazolam 30 ng/ml alone, no added GABA, 4 days, FIG. 2) of the same compound?
A: about 123%

Q: What about the “human islet cell proliferation relative to the corresponding GABA (alone) dose” value ([4]; co-treatment 100 nM alprazolam and GABA, FIG. 12) of the same compound?
A: significantly increased human islet cell proliferation

Q: What about the “human islet cell proliferation” value ([4]; dose range of alprazolam alone, low concentrations, FIG. 10) of the same compound?
A: promoted human islet cell proliferation

Q: What about the “EAE and inflammation in the spinal cords” value [8] of the same compound?
A: inhibited EAE and inflammation in the spinal cords

Q: And the HbA1c levels [9]?
A: significantly reduced

Q: What about the INS-1 cell proliferation ([2]; 0.01 mM GABA in the presence of 30 or 100 nM alprazolam, FIG. 9 panel C) of the same compound?
A: significantly increased INS-1 cell proliferation

Q: And the INS-1 cell proliferation [2, 12]?
A: significantly stimulated proliferation of INS-1 cells

Q: What about the “ability to enhance GABA's pro-mitotic effects on INS-1 cells” value ([2]; alprazolam at high concentration of GABA (0.1 or 0.3 mM)) of the same compound?
A: had less ability to enhance GABA's pro-mitotic effects

Q: Which INS-1 cell proliferation [2, 13] does the source give for `O=C1CN=C(c2ccccc2Cl)c2cc([N+](=O)[O-])ccc2N1` [clonazepam] here?
A: enhanced cell proliferation

Q: And the “effect on GABA-induced INS-1 cell proliferation” value [2, 14]?
A: significantly enhanced GABA-stimulated INS-1 cell proliferation

Q: And the INS-1 cell proliferation ([2]; compound alone at 10^−4-10^−9 M, 48 hours)?
A: did not significantly change the proliferation of INS-1 cells

Q: What about the “INS-1 cell proliferation, single agents of TSPO experiment” value [2, 11] of the same compound?
A: but not clonazepam or PK11195 induced INS-1 cell proliferation

Q: And the “effect on GABA-stimulated INS-1 cell proliferation” value [2]?
A: enhanced GABA-stimulated INS-1 cell proliferation

Q: What does the source list for `Cc1ncc2n1-c1ccc(Cl)cc1C(c1ccccc1F)=NC2` [midazolam]?
A: solubility ([1]; water): 6.25 mM (≈ 2040 µg/mL); INS-1 cell proliferation [2, 13]: enhanced cell proliferation; INS-1 cell proliferation [2, 12]: significantly stimulated proliferation of INS-1 cells; effect on GABA-induced INS-1 cell proliferation [2, 14]: enhanced GABA-induced INS-1 cell proliferation; INS-1 cell proliferation ([2]; PAM at 10^−7 or 3×10^−8 M with GABA at 0.03-0.01 mM): significantly enhanced INS-1 cell proliferation; toxicity against INS-1 cells ([2]; compound alone at 10^−5 M): slight toxicity; INS-1 cell proliferation ([2]; compound alone at 10^−7-3×10^−8 M, FIG. 4B): significantly enhanced the proliferation of INS cells; INS-1 cell proliferation [2, 10]: significantly enhanced INS-1 cell proliferation; INS-1 cell proliferation, single agents of TSPO experiment [2, 11]: induced INS-1 cell proliferation; effect on GABA-stimulated INS-1 cell proliferation [2]: enhanced GABA-stimulated INS-1 cell proliferation
